In patent US20260297136A1, “PEPTIDES WITH LIPOLYTIC, ANTI-LIPOGENIC, ANTIFIBROTIC AND ANTI-INFLAMMATORY ACTIVITY” (FUNDACIÓ HOSPITAL UNIVERSITARI VALL D'HEBRON - INSTITUT DE …, priority 2023, published 2026):

Assays:
[1] = test system: HepG2 cells; assay: Hepatic lipogenesis gene expression in HepG2 cells (24 h), Example 7; type: cell-based, human; conditions: 40 μg/ml, vs vehicle
Source text: (§1) FIG. 32. Effect of GP6 and modified peptides on hepatic lipogenesis in HepG2 cells. Each bar within each group represents mRNA levels of a key hepatic lipogenic enzyme, from left to right: Acetyl-CoA Carboxylase (ACC), ATP Citrate Lyase (ACLY) and Fatty Acid Synthase (FAS), and a key transcription factor regulating several lipogenic enzymes such as PPARγ (PPARγ).
(§2) Cell culture reagents were from Life Technologies Inc (Invitrogen SA, Barcelona, Spain). HepG2 hepatoblastoma cells (cat. no. HB-8065; ATCC, LGC Standards SLU, Barcelona, Spain) were maintained in Dulbecco's modified Eagle medium (DMEM) supplemented with 10% fetal bovine serum and antibiotics.
(§3) • HepG2 cells were cultured for 5 day in the absence or presence of 30 mM fructose. Cells cultured in 30 mM fructose were daily treated with vehicle, Telmisartan, Semaglutide or EDL6D. • HepG2 cells were cultured for 24 h in the absence or presence of GP6 (40 μg/ml), GP10 (40 μg/ml), GP11 (40 μg/ml), GP12 (40 μg/ml), GP13 (40 μg/ml) or SHBG (20 nM). • HepG2 cells were cultured in the absence or presence of 30 mM fructose and treated for 2 h with vehicle or GP4 (40 μg/ml), GP6 (40 μg/ml), GP7 (40 μg/ml), GP8 (40 μg/ml), GP9 (40 μg/ml), GP10 (40 μg/ml), GP11 (40 μg/ml), GP12 (40 μg/ml), GP13 (40 μg/ml) or SHBG (20 nM).
(§4) Total RNA was extracted from HepG2 and LX-2 cells using TRIzol reagent (Invitrogen SA). Reverse transcription was performed at 42° C. for 50 minutes using […] of total RNA, 200 U of Superscript II, and an oligo-dT primer and reagents provided by Invitrogen. An aliquot of the reverse transcription product was amplified in a […] reaction using SYBRGreen (Invitrogen SA) with appropriate oligonucleotide primer pairs corresponding to human SHBG, ACC, FAS, ACLY, PPARG, and 18S and mouse ACC, FAS, ACLY, PPARG, Col1A1 and 18S. Results were analyzed using the 7000 Sequence Detection System program (Applied Biosystems, Thermo Fisher Scientific, Barcelona, Spain) (Shez-Lopez et al Endocrinology 2017).

[2] = test system: HepG2 cells; assay: Hepatic lipogenic key enzymes in HepG2 cells in the presence of 30 mM fructose (2 h), Example 7; type: cell-based, human; conditions: 40 μg/ml
Description: as §1, with “34. Effects” for “32. Effect”, “different peptides” for “GP6”, “SHBG in reducing” for “modified peptides on”, “lipogenic key enzymes” for “lipogenesis”, “the presence of 30 mM fructose.” for “HepG2 cells.”
as §2, §3, §4

[3] = test system: obesity and fatty liver disease mouse model; assay: Therapeutic effects in an obesity and fatty liver disease mouse model, Example 6; type: in vivo, C57BL6/J male mice; conditions: Telmisartan 5 mg/kg/day in drinking water, 10 weeks
Description: C57BL6/J male mice were purchased and kept for quarantine and acclimatization for a period of about 7 days before initiation of every experiment. Mice were housed in clean and sterilized mice cages and maintained in a controlled environment with 22+3° C. temperature, 50+20% humidity, a light/dark cycle of 12 hours each and 15-20 fresh air changes per hour.
For Obesity and NAFLD induction, the animals were fed ad libitum, either with chow diet (150SP-10, Safe Diets) or 45% high-fat diet (TD.190179, Envigo) plus 30% fructose (F0127, Sigma Aldrich) in drinking water for 20 weeks. The therapeutic effect of a daily subcutaneous injection of GP6 (20 mg/kg/day) in this mouse model was assessed for 10 weeks, starting the treatment on week 10 of the experiment until week 20.
A group of control mice (n=10) was fed with control diet and regular drinking water and a group of mice (n=30) obesity and fatty liver disease was induced for 10 weeks. At this point, mice were randomly divided in three groups of n=10, the first group was treated with daily subcutaneous injections of vehicle (water), the second group was treated with Telmisartan (5 mg/kg/day) in the drinking water and a subcutaneous injection of vehicle, and the third group with daily subcutaneous injection of GP6 (20 mg/kg/day) during 10 weeks.
At the end of the experiment mice were sacrificed, serum samples were extracted, tissues were weighted and part was fixed in paraformaldehyde for histology studies and part immediately frozen at −80 C for mRNA and protein expression studies as well as assessment of triglycerides.
The histology studies, AST and ALT measurements, TG measurements, and the RNA analysis were performed as described in Example 4.

[4] = test system: HepG2 cells; assay: Hepatic lipogenesis gene expression (ACC, FAS, ACLY mRNA by RTPCR) in HepG2 cells, Example 2; type: cell-based, human; conditions: 10 μM, 24 h, relative to 18S
Description: FIG. 5 Human hepatoblastoma cell line HepG2 was treated with vehicle (DMSO) or 10 μM of GP4, GP7, GP8 or GP9 for 24 h. RNA was extracted and mRNA levels of Acetyl-CoA Carboxylase (ACC), Fatty Acid Synthase (FAS) and ATP-Citrate Lyase (ACLY) relative to 18S were measured by RTPCR.
Cell culture reagents were from Life Technologies Inc (Invitrogen SA, Barcelona, Spain). HepG2 hepatoblastoma cells (cat. no. HB-8065; ATCC, LGC Standards SLU, Barcelona, Spain) were maintained in Dulbecco's modified Eagle medium (DMEM) supplemented with 10% fetal bovine serum and antibiotics. HepG2 cells were treated with vehicle or 10 μM of GP4, GP7, GP8 and GP9 for 24 h. LX-2 human hepatic stellate cells (SCC064) were maintained in DMEM supplemented with 2% fetal bovine serum and antibiotics. For experiments, LX-2 were cultured for 24 h in DMEM 0.2% FBS and treated for 24 h with vehicle or TGFβ1 (20 ng/ml) in the absence or presence of 8 μM of GP4, GP7, GP8 and GP9 for 24 h. At the end of the experiment's cells were harvested for gene expression analysis.
as §4, with “human” for “human SHBG,”, “Col1A1” for “PPARG,”, “(shown in table 7).” for “and mouse ACC, FAS, ACLY, PPARG, Col1A1 and 18S.”, “(Sex Hormone-Binding Globulin Reduction in Metabolic Disorders May Play a Role in NAFLD Development.Saez-Lopez C, Barbosa-Desongles A, Hernandez C, Dyer R A, Innis S M, Simo R, Selva D M. Endocrinology. 2017 Mar. 1; 158(3):545-559. doi: 10.1210/en.2016-1668).” for “(Shez-Lopez et al Endocrinology 2017).”

[5] = test system: human mature adipocytes; assay: Lipolysis in human mature adipocytes (glycerol production), Example 2; type: cell-based; conditions: 10 μM, 16 h, with respect to control cells
Description: FIG. 7. Mature human subcutaneous adipocytes were treated with vehicle (DMSO), 3 μM of Isoproterenol or 10 μM of GP4, GP8 or GP9 for 16 h. Glycerol concentration was assessed using a Lipolysis Assay Kit (Tebu-bio). Lipolysis induction was calculated with respect to the control cells treated with DMSO.
Human preadipocytes and cell culture reagents were from purchased from Tebu-Bio (Tebu-bio, Barcelona, Spain) and differentiation protocol was done following the manufacturer's instructions. Human adipocytes were maintained in a humidified incubator with 5% CO2 at 37° C. (Sex hormone-binding globulin overexpression protects against high-fat diet-induced obesity in transgenic male mice. Saez-Lopez C, Villena J A, Simo R, Selva D M. J Nutr Biochem. 2020 November; 85:108480. doi: 10.1016/j.jnutbio.2020.108480).
Lipolysis assays were performed using a Lipolysis Kit (Tebu-Bio) following the manufacturer's instructions as previously described.

Compound	ACC mRNA levels [1]	ACLY mRNA levels [1]	FAS mRNA levels [1]	PPARγ mRNA levels [1]	fructose-induced expression of ACC [2]	fructose-induced expression of ACLY [2]	fructose-induced expression of FAS [2]	fructose-induced expression of PPARγ [2]	liver triglyceride (TAG) content [3]	liver weight [3]	Total body weight versus control mice ([3]; vs control diet mice)	serum glucose levels ([3]; vs vehicle)	ATP-Citrate Lyase (ACLY) mRNA levels [4]	Acetyl-CoA Carboxylase (ACC) mRNA levels [4]	Fatty Acid Synthase (FAS) mRNA levels [4]	increase of glycerol production (lipolysis) [5]
ATKTSASFEVRTWDPEAVIFY [GP10]	reduced the mRNA levels	reduced the mRNA levels	reduced the mRNA levels	reduced the mRNA levels	able to reduce	able to reduce	able to reduce	able to reduce	–	–	–	–	–	–	–	–
TKTASAFEVRTWDPEGVIFY [GP12]	reduced all key lipogenic genes except FAS	reduced all key lipogenic genes except FAS	–	reduced all key lipogenic genes except FAS	able to reduce	able to reduce	able to reduce	able to reduce	–	–	–	–	–	–	–	–
CCCc1nc2c(C)cc(-c3nc4ccccc4n3C)cc2n1Cc1ccc(-c2ccccc2C(=O)O)cc1 [Telmisartan, reference compound]	–	–	–	–	–	–	–	–	failed to decrease TAG liver content	did not reduced significantly	significantly increased	did not have any effect	–	–	–	–
TKTSASFEVRTWDPEGVIFYADTNPKDDWF [GP13]	able to reduce	no ACLY and PPARγ	able to reduce	no ACLY and PPARγ	able to reduce the expression of ACC and ACLY more effectively than SHBG	able to reduce the expression of ACC and ACLY more effectively than SHBG	had no effect on FAS	increased PPARγ expression	–	–	–	–	–	–	–	–
TKTASAFEVRTWDPEGVIFYGDTNPKDDWF [GP11]	reduced the mRNA levels	reduced the mRNA levels	reduced the mRNA levels	reduced the mRNA levels	able to reduce	able to reduce	able to reduce	able to reduce	–	–	–	–	–	–	–	–
CC[C@@H](C)[C@@H](NC(=O)[C@@H](CCCCN)NC(=O)[C@H](NC(=O)[C@@H](CC(C)C)NC(=O)[C@@H](CC(=O)O)NC(=O)[C@@H](Cc1ccccc1)NC(=O)[C@H](NC(=O)[C@@H](CCSC)NC(=O)[C@H](N)C(C)C)[C@H](C)O)[C@H](C)O)C(=O)N[C@@H](C(=O)N[C@H](CCCCN)C(=O)N[C@@H](C(=O)N[C@H](CO)C(=O)N[C@H](CO)C(=O)N[C@H](CO)C(=O)N[C@H](Cc1ccccc1)C(=O)N[C@H](CCC(=O)O)C(=O)N[C@@H](C(=O)N[C@H](CCCNC(=N)N)C(=O)N[C@@H](C(=O)N[C@H](Cc1c[nH]c2ccccc12)C(=O)N[C@H](CC(=O)O)C(=O)N1CCC[C@@H]1C(=O)N[C@H](CCC(=O)O)C(=O)NCC(=O)N[C@@H](C(=O)N[C@@H](C(=O)N[C@H](Cc1ccccc1)C(=O)N[C@H](Cc1ccc(O)cc1)C(=O)O)[C@H](C)CC)C(C)C)[C@H](C)O)C(C)C)[C@H](C)O)[C@H](C)O [GP4]	–	–	–	–	able to reduce	able to reduce	able to reduce	able to reduce	–	–	–	–	did not alter	reduced	increased	500%
CC[C@@H](C)[C@@H](NC(=O)[C@H](NC(=O)CNC(=O)[C@@H](CCC(=O)O)NC(=O)[C@H]1CCCN1C(=O)[C@@H](CC(=O)O)NC(=O)[C@@H](Cc1c[nH]c2ccccc12)NC(=O)[C@H](N)[C@H](C)O)C(C)C)C(=O)N[C@H](Cc1ccccc1)C(=O)N[C@H](Cc1ccc(O)cc1)C(=O)NCC(=O)N[C@H](CC(=O)O)C(=O)N[C@@H](C(=O)N[C@H](CC(N)=O)C(=O)N1CCC[C@@H]1C(=O)N[C@H](CCCCN)C(=O)N[C@H](CC(=O)O)C(=O)N[C@H](CC(=O)O)C(=O)N[C@H](Cc1c[nH]c2ccccc12)C(=O)N[C@H](Cc1ccccc1)C(=O)O)[C@H](C)O [GP7]	–	–	–	–	able to reduce the expression of ACC and ACLY more effectively than SHBG	able to reduce the expression of ACC and ACLY more effectively than SHBG	had no effect on FAS and PPARγ expression	had no effect on FAS and PPARγ expression	–	–	–	–	reduced	reduced	increased	–
